According to patent US8946283B2, “Composition for preventing or treating obesity, dyslipidemia, fatty liver or diabetes containing indole-3-carbinol derivative as active ingredient” (Industry-Academic Cooperation Foundation, Yonsei University, priority 2011, dated 2015):

Test system: 3T3-L1 cells
Test: Inhibition of adipocyte differentiation, Oil Red O staining of triglyceride
Assay type: cell-based, mouse
Settings: 0.1, 1, 10, 50 and 100 μM, 14 days, vs DMSO control
Protocol: Mouse adipocyte cell line (3T3-L1) was used to investigate the effect of various indole-3-carbinol derivatives on differentiation and growth of adipocytes. The preadipocytes, 3T3-L1 cells, were seeded on a 12-well plate and cultured to confluency using Dulbecco's modified Eagle's medium (DMEM) containing 1% penicillin-streptomycin, 1% nonessential amino acid and 10% fatal bovine serum (FBS), in a 5% CO2 incubator at 37° C. The 3T3-L1 cells grown to confluency were cultured for 2 days in MDI medium containing 0.5 mM isobutylmethylxanthine, 1 μM dexamethasone and 1 μg/mL insulin to differentiate them into adipocytes. Then, the cells were further cultivated in DMEM containing 1 μg/mL insulin to differentiate them into mature adipocytes. The cells were further cultured for 10 more days while replacing DMEM every other day to obtain fully differentiated adipocytes.
From the first day when MDI was added to the 3T3-L1 cells, 16 indole-3-carbinol derivative compounds were treated at concentrations of 0.1, 1, 10, 50 and 100 μM with 2-day intervals. The structure and molecular weight of the 16 indole-3-carbinol derivatives (B518, B521, B525, B528, B538, B540, B542, B544, B545, B546, B547, B549, B551, B556, B558 and B561) are described in Table 1. The derivative compounds were used after being dissolved in DMSO. Only DMSO was added to the negative control group.
After culturing for a total of 14 days, the medium was removed when the differentiation was completed and lipid droplets in the differentiated adipocytes were stained. For this, the cells were washed twice with phosphate buffered saline (PBS), fixed in 10% buffered neutral formalin (BNF) for 1 hour, washed once again with PBS, stained for 1 hour by adding 1 mL of Oil Red O dye, which specifically stains fat red, on the 12-well plate, and washed twice with distilled water. In order to measure the level of triglyceride contained in the differentiated 3T3-L1 cells, the stained lipid droplets were dissolved in 1 mL of isobutanol and optical density (OD) value was measured at 600 nm.

SMILES	differentiation of the preadipocytes 3T3L1
O=C1N(CCc2ccccc2)c2ccc(Br)cc2C1(O)c1c[nH]c2ccccc12 (stereo not shown) [B518, 5′-Bromo-3′-hydroxy-1′-(2-phenylethyl)-1′,3′-dihydro-1H,2′H-3,3′-biindol-2′-one]	reduced the differentiation of the preadipocytes 3T3L1 in a concentration-dependent manner
CN1C(=O)C(O)(c2c[nH]c3ccccc23)c2cc(Cl)ccc21 (stereo not shown) [B521, 5′-Chloro-3′-hydroxy-1′-methyl-1′,3′-dihydro-1H,2′H-3,3′-biindol-2′-one]	reduced the differentiation of the preadipocytes 3T3L1 in a concentration-dependent manner
O=C1N(CCc2ccccc2)c2ccccc2C1(O)c1c[nH]c2ccccc12 (stereo not shown) [B538, 3′-Hydroxy-1′-(2-phenylethyl)-1′,3′-dihydro-1H,2′H-3,3′-biindol-2′-one]	reduced the differentiation of the preadipocytes 3T3L1 in a concentration-dependent manner
CCCCN1C(=O)C(O)(c2c[nH]c3ccccc23)c2cc(Br)ccc21 (stereo not shown) [B540, 5′-Bromo-1′-butyl-3′-hydroxy-1′,3′-dihydro-1H,2′H-3,3′-biindol-2′-one]	reduced the differentiation of the preadipocytes 3T3L1 in a concentration-dependent manner
O=C1N(Cc2ccccc2)c2ccccc2C1(O)c1c[nH]c2ccccc12 (stereo not shown) [B542, 1′-Benzyl-3′-hydroxy-1′,3′-dihydro-1H,2′H-3,3′-biindol-2′-one]	reduced the differentiation of the preadipocytes 3T3L1 in a concentration-dependent manner
CCN1C(=O)C(O)(c2c[nH]c3ccccc23)c2cc(Br)ccc21 (stereo not shown) [B544, 5′-Bromo-1′-ethyl-3′-hydroxy-1′,3′-dihydro-1H,2′H-3,3′-biindol-2′-one]	reduced the differentiation of the preadipocytes 3T3L1 in a concentration-dependent manner
Cc1ccc(CN2C(=O)C(O)(c3c[nH]c4ccccc34)c3ccccc32)cc1 (stereo not shown) [B545, 3′-Hydroxy-1′-(4-methylbenzyl)-1′,3′-dihydro-1H,2′H-3,3′-biindol-2′-one]	reduced the differentiation of the preadipocytes 3T3L1 in a concentration-dependent manner
O=C1N(Cc2ccc(Cl)cc2)c2ccccc2C1(O)c1c[nH]c2ccccc12 (stereo not shown) [B546, 1′-(4-Chlorobenzyl)-3′-hydroxy-1′,3′-dihydro-1H,2′H-3,3′-biindol-2′-one]	reduced the differentiation of the preadipocytes 3T3L1 in a concentration-dependent manner
Cc1[nH]c2ccccc2c1C1(O)C(=O)N(CCc2ccccc2)c2ccc(Cl)cc21 (stereo not shown) [B547, 5′-Chloro-3′-hydroxy-2-methyl-1′-(2-phenylethyl)-1′,3′-dihydro-1H,2′H-3,3′-biindol-2′-one]	reduced the differentiation of the preadipocytes 3T3L1 in a concentration-dependent manner
Cc1ccc(C)c(CN2C(=O)C(O)(c3c(C)[nH]c4ccccc34)c3ccccc32)c1 (stereo not shown) [B549, 1′-(2,5-Dimethylbenzyl)-3′-hydroxy-2-methyl-1′,3′-dihydro-1H,2′H-3,3′-biindol-2′-one]	reduced the differentiation of the preadipocytes 3T3L1 in a concentration-dependent manner
Cc1[nH]c2ccccc2c1C1(O)C(=O)N(Cc2cccs2)c2ccccc21 (stereo not shown) [B551, 3′-Hydroxy-2-methyl-1′-(2-thienylmethyl)-1′,3′-dihydro-1H,2′H-3,3′-biindol-2′-one]	reduced the differentiation of the preadipocytes 3T3L1 in a concentration-dependent manner
Cc1ccc(OCCN2C(=O)C(O)(c3c(C)[nH]c4ccccc34)c3ccccc32)cc1 (stereo not shown) [B556, 3′-Hydroxy-2-methyl-1′-[2-(4-methylphenoxy)ethyl]-1′,3′-dihydro-1H,2′H-3,3′-biindol-2′-one]	reduced the differentiation of the preadipocytes 3T3L1 in a concentration-dependent manner
COc1ccccc1OCCN1C(=O)C(O)(c2c(C)[nH]c3ccccc23)c2ccccc21 (stereo not shown) [B558, 3′-Hydroxy-1′-[2-(2-methoxyphenoxy)ethyl]-2-methyl-1′,3′-dihydro-1H,2′H-3,3′-biindol-2′-one]	reduced the differentiation of the preadipocytes 3T3L1 in a concentration-dependent manner
CC(=O)c1[nH]c2ccccc2c1C(=O)O [B561, 2-Acetyl-1H-indole-3-carboxylic acid]	reduced the differentiation of the preadipocytes 3T3L1 in a concentration-dependent manner

Same assay, conditions: 3T3-L1 cells, FIGS. 1-3

SMILES	triglyceride accumulation in cells
O=C1N(CCc2ccccc2)c2ccc(Br)cc2C1(O)c1c[nH]c2ccccc12 (stereo not shown) [B518, 5′-Bromo-3′-hydroxy-1′-(2-phenylethyl)-1′,3′-dihydro-1H,2′H-3,3′-biindol-2′-one]	effectively reduce triglyceride accumulation in cells
O=C1N(CCc2ccccc2)c2ccccc2C1(O)c1c[nH]c2ccccc12 (stereo not shown) [B538, 3′-Hydroxy-1′-(2-phenylethyl)-1′,3′-dihydro-1H,2′H-3,3′-biindol-2′-one]	effectively reduce triglyceride accumulation in cells
